Test results: publication PMC6832230, “Anti-Inflammatory Activity of Some Characteristic Constituents from the Vine Stems of Spatholobus suberectus” (Molecules, 2019)
“Also recorded” adds a separate entry of the source. Read-outs that look alike come from different tables or passages of the source.

Columns and labels:
[1] = test system: nitric oxide (NO) production in RAW264.7 macrophages stimulated by lipopolysaccharide; assay: NO inhibition assay (Griess method) in LPS-stimulated RAW264.7 cells; format: cell-based; details: for IC50: read-out: IC50 of inhibition of NO production; for SI (selectivity index): calculated from CC50 and IC50
Source text: As a kind of pro-inflammatory mediator, NO plays a complex role and participates in many different kinds of inflammatory reactions, the level of which usually varies to different pathological degrees. The isolated novel compounds and 10 known ones in this research were chosen to evaluate the activity of inhibiting NO released by RAW264.7 cells after being stimulated by LPS.
The Griess method is generally used for determining NO concentration in anti-inflammatory experiments. The supernatant removed from the 96-well plates mentioned in Section 3.3.1 was interacted with Griess reagent (100 μL), and the absorbance was measured at 540 nm after 15 min. Two drugs, L-NIL and IND, were used as positive controls for comparative analysis in the test.
(§1) The IC50 values for NO inhibitory effects were calculated using SPSS v.20.0 (SPSS Inc., Chicago, IL, USA) and results were given as means ± SD. The mRNA expression levels were compared using variance analysis with GraphPad Prism 7.0 (GraphPad Software Inc., San Diego, CA, USA), and results were expressed as means ± SEM. All tests were carried out in triplicate.

[2] = test system: IL-6 mRNA; assay: qPCR assay of IL-6 mRNA expression in LPS-stimulated RAW264.7 cells; format: cell-based; details: 24 h
Description: After measuring the concentration, 1 μg of total RNA was used to obtain complementary DNA (cDNA) with a qRT super mix (Bimake Co., Ltd., Houston, SD, USA). The amplification of cDNA was carried out on a Quantitative RT-PCR system (Agilent Technologies, Stratagene, Inc., Santa Clara, CA, USA) using SYBR green qPCR master mix (Bimake Co., Ltd., Houston, SD, USA). The thermal cycling conditions were as follows: 95 °C for 10 min, 40 cycles of 95 °C for 30 s, 55 °C for 1 min, and 72 °C for 1 min, followed by 95 °C for 1 min, 55 °C for 30 s, and 95 °C for 30 s. […] The mRNA expression levels were compared using variance analysis with GraphPad Prism 7.0 (GraphPad Software Inc., San Diego, CA, USA), and results were expressed as means ± SEM. All tests were carried out in triplicate.

[3] = test system: IL-1β mRNA; assay: qPCR assay of IL-1β mRNA expression in LPS-stimulated RAW264.7 cells; format: cell-based; details: 24 h
Description: (§2) The RAW264.7 cells were seeded in 12-well plates at 3 × 10^4 cells/well; after being stimulated by LPS (1.0 μg/mL) and treated with two different concentrations of compounds for 24 h, the total RNA was extracted from the cells with Trizol reagent (Invitrogen, Thermo Fisher Scientific Inc., Waltham, MA, USA). After measuring the concentration, 1 μg of total RNA was used to obtain complementary DNA (cDNA) with a qRT super mix (Bimake Co., Ltd., Houston, SD, USA). The amplification of cDNA was carried out on a Quantitative RT-PCR system (Agilent Technologies, Stratagene, Inc., Santa Clara, CA, USA) using SYBR green qPCR master mix (Bimake Co., Ltd., Houston, SD, USA). The thermal cycling conditions were as follows: 95 °C for 10 min, 40 cycles of 95 °C for 30 s, 55 °C for 1 min, and 72 °C for 1 min, followed by 95 °C for 1 min, 55 °C for 30 s, and 95 °C for 30 s.
as §1

[4] = test system: TNF-α mRNA; assay: qPCR assay of TNF-α mRNA expression in LPS-stimulated RAW264.7 cells; format: cell-based; details: 24 h
Description: as §2, §1

[5] = test system: iNOS mRNA; assay: qPCR assay of iNOS mRNA expression in LPS-stimulated RAW264.7 cells; format: cell-based; details: 24 h
Description: as §2, §1

[6] = Cytotoxicity assay (MTT); details: mouse, RAW 264.7 cells, RAW 264.7 cells
Description: (§3) The toxicities of different concentrations of compounds to cells were evaluated using the MTT assay [32, 33]. Firstly, the RAW 264.7 cells were maintained in DMEM with 10% FBS at 37 °C in a humid atmosphere containing 5% CO2. Then, the cells were seeded in 96-well plates (3 × 10^4 cells/well) after being passaged three times at a 1:3 split ratio. […] After being cultured for 24 h, the supernatant (100 μL) was transferred out and MTT (5 mg/mL, 20 μL for each well) was added, and the mixed solvent of 0.012 M HCl, 5% i-PrOH, and 10% sodium dodecyl sulfate (100 μL) was added 4 h later. The absorbance value was measured at 492 nm by a Thermo Multiskan MK3 microplate reader (Thermo-Labsystem, Franklin, MA, USA).

[7] = test system: COX-2 mRNA; assay: qPCR assay of COX-2 mRNA expression in LPS-stimulated RAW264.7 cells; format: cell-based; details: 24 h
Description: as §2, §1

[8] = test system: RAW 264.7 cells
Description: as §3

[9] = RAW264.7 cells, LPS 1 μg/mL, 24 h, Griess, n = 3, mean ± SD
[10] = LPS 1.0 μg/mL, RAW264.7 cells, concentration not given
[11] = Mus musculus, RAW264.7, 24 h, RAW264.7 cells, LPS 1 μg/mL, 24 h, Griess, n = 3, mean ± SD
[12] = CC50 (median cytotoxic concentration), MTT, 24 h, n = 3, >200: CC50 could not be obtained, cell survival rate >98% at 200–6.25 μM
[13] = at 40 μM and 50 μM, LPS-stimulated RAW264.7 cells
[14] = at 5 μM and 10 μM, LPS-stimulated RAW264.7 cells

Row | Compound | IC50 [1, 11] | SI (selectivity index) [1] | effect on mRNA expression of TNF-α [4, 10] | effect on mRNA expression of iNOS [5, 10] | CC50 at 24 h [6, 12] | effect on mRNA expression of COX-2 [7, 10] | other results
1 | COc1ccc(-c2coc3cc([O-])ccc3c2=O)cc1.[Na+] [Compound 7, formononetin sodium] | – | 14.73 | negate the effect | negate the effect | – | – | IC50 [1, 9]: 22.8 ± 0.55 µM; effect on mRNA expression of IL-6 [2, 10]: negate the effect; effect on mRNA expression of IL-1β [3, 10]: negate the effect
2 | COc1c(O)ccc2c1OC[C@H](c1cc3c(cc1O)OCO3)[C@H]2O [Compound 2, (3S,4R)-7,2′-dihydroxy-8-methoxy-4′,5′-methylenedioxy-isoflavan-4-ol] | 46.3 ± 5.83 µM | >4.32 | – | – | > 200 µM | – | –
3 | O=C(/C=C/c1ccc(O)cc1)c1ccc(O)cc1O [Compound 10, isoliquiritigenin] | 6.78 ± 0.59 µM | 19.68 | can reduce; also recorded: significantly downregulate | can reduce | 133 ± 2.11 µM | can reduce | –
4 | Oc1ccc2c(c1)OC[C@H](c1cc3c(cc1O)OCO3)[C@H]2O [Compound 4, (3S,4R)-7,2′-dihydroxy-4′,5′-methylenedioxy-isoflavan-4-ol] | 40.1 ± 6.94 µM | 7.50 | – | – | > 200 µM | – | effect on mRNA expression of IL-1β [3, 13]: could inhibit
5 | COC1=CC(=O)C=C(OC)C1=O [Compound 1, 2,6-dimethoxy-1,4-benzoquinone] | – | 4.61 | can reduce | can reduce | – | can reduce | inhibition of NO production compared with L-NIL (in words) ([1]; LPS-stimulated RAW264.7 cells): potent inhibition; IC50 ([1]; Mus musculus, RAW264.7, 24 h): 5.69 ± 0.28 µM; effect on mRNA expression of IL-6 [2, 14]: markedly reduced; effect on mRNA expression of IL-1β [3, 14]: markedly reduced; effect on mRNA expression of TNF-α [4, 14]: markedly reduced; effect on mRNA expression of iNOS [5, 14]: markedly reduced; effect on mRNA expression of COX-2 [7, 14]: markedly reduced; CC50 at 24 h [6]: 26.2 ± 1.26 µM
6 | 4,7,2′-trihydroxy-4′-methoxy-isoflavanol [Compound 3] | – | – | – | – | – | – | IC50 [1, 9]: 35.4 ± 2.92 µM; effect on mRNA expression of IL-1β [3, 13]: could inhibit; CC50 [8]: > 200 µM

Continued, in another order:

Row | IC50 [1, 11] | Compound | SI (selectivity index) [1] | effect on mRNA expression of TNF-α [4, 10] | effect on mRNA expression of iNOS [5, 10] | CC50 at 24 h [6, 12] | effect on mRNA expression of COX-2 [7, 10] | other results
7 | 123 ± 9.92 µM | COc1ccc(C2COc3cc(OC4OC(CO)C(O)C(O)C4O)ccc3C2O)c(O)c1 [Compound 14, (3S,4R)-4,2′-dihydroxy-4′-methoxy-isoflavanol-7-glucopyranoside] | 5.86 | – | – | > 200 µM | – | –
8 | 21.1 ± 4.8 µM | COc1ccc(-c2coc3cc(O)ccc3c2=O)cc1 [Compound 11, formononetin] | 4.88 | – | notably downregulated | 103 ± 9.56 µM | notably downregulated | –
9 | 35.5 ± 2.69 µM | O=c1c(-c2ccc(O)cc2)coc2cc(O)ccc12 [Compound 12, daidzein] | 11.64 | – | – | > 200 µM | – | effect on mRNA expression of IL-6 [2, 10]: inhibition; effect on mRNA expression of IL-1β [3, 10]: inhibition
